Data taken from patent US20120238604A1, “CYTOTOXIC COMPOUNDS” (Molecular Discovery Systems, priority 2009, published 2012).

What was measured:
[1] = test system: HeLa cells expressing H2B-GFP; assay: Dose-dependent inhibition of cell proliferation, cell counts over 0-96 h; format: cell-based, human; conditions: 0.2-20 μM
Protocol: FIG. 4. Dose-dependent inhibition of cell proliferation by compound B3. The proliferation of HeLa cells at decreasing concentrations (from 20 to 0.2 μM) of polokinase inhibitor (PKi), KSP inhibitor (STLC) and compound B3 was determined (relative to paclitaxel at 400 to 10 nM) by counting of the cells over time (0-96 h).
FIG. 4 HeLa cells expressing H2B-GFP were plated in multi-well plates and exposed to 0.2-20 μM of polokinase inhibitor (PKi), KSP inhibitor (STLC) and compound B3, or 10-400 nM of paclitaxel. The number of cells at 0, 24, 48, 72 and 96 h of treatment was determined by imaging of the GFP signal in the plates with an IN Cell Analyser (GE Healthcare) followed by measurement of the number of intact cell nuclei using Developer™ software (GE Healthcare).

[2] = test system: HeLa cells expressing H2B-GFP; assay: Induction of mitotic arrest, phospho-histone 3 marker of mitosis; format: cell-based, human; conditions: 4 hours; 20 μM compound or 100 nM paclitaxel
Protocol: (B) HeLa cells exposed for 4 hours to carrier (DMSO), 20 μM compound A1 or 100 nM paclitaxel were fixed and stained with anti-phospho-histone 3 marker of mitosis followed by fluorescent secondary antibody. The percentage of cells positive for phospho-histone 3 was determined by digital imaging and analysis of the fluorescence signals (B).
FIG. 2 (B) The H2B-GFP-expressing HeLa cells were treated for 4 hours with carrier (0.1% (v/v) DMSO), 20 μM compound A1 or 100 nM paclitaxel in DMSO. The cells were then briefly rinsed with phosphate-buffered saline (PBS) prior to fixation with 4% para-formaldehyde at ambient temperature. The fixed cells were then stained with mouse monoclonal anti-phospho-histone 3 antibody and Alexafluor 546 nm goat anti-mouse antibody (diluted 400× from commercial stocks into PBS containing 10 mg/ml bovine serum albumin (BSA)). The GFP and 546 nm fluorescence signals were then captured with an IN Cell Analyser 1000 (GE Healthcare) and the percentage of cells stained with the anti-phospho-histone 3 antibody determined using Developer™ software (GE Healthcare).

[3] = test system: HeLa cells expressing H2B-GFP; assay: Perturbation of mitotic spindle organisation and assembly, anti-β-tubulin staining; format: cell-based, human; conditions: 20 μM, overnight
Protocol: HeLa cells stably expressing a green fluorescent marker of nuclear DNA (H2B-GFP) were exposed overnight to carrier (DMSO) or 20 μM compounds A1 and B3. The cells were then fixed with methanol, stained with mouse monoclonal anti-β-tubulin antibody and Alexafluor 546 nm goat anti-mouse antibody, and fluorescent signal visualised by microscopy. The open circle indicates a cell with a perturbed mitotic spindle while the arrow indicates a cell with a mostly disassembled mitotic spindle.
These cells were exposed overnight to carrier (0.1% (v/v) DMSO) or an equivalent volume of DMSO containing compounds A1 and B3 (final concentration in the culture medium was 20 μM). The cells were then briefly rinsed with phosphate-buffered saline (PBS) prior to fixation with 100% methanol at −20° C. The fixed cells were then stained with mouse monoclonal anti-β-tubulin antibody and Alexafluor 546 nm goat anti-mouse antibody (diluted 400× from commercial stocks into PBS containing 10 mg/ml bovine serum albumin (BSA)). The GFP and 546 nm fluorescence signals were then visualised using a microscope equipped for digital confocal epifluorescence imaging. The open circle in FIG. 1 represents a cell with a perturbed mitotic spindle while the arrow points to a cell with a mostly unassembled mitotic spindle.

[4] = test system: HeLa cells expressing H2B-GFP; assay: Induction of mitotic arrest, phase-contrast microscopy; format: cell-based, human; conditions: overnight; 20 μM compound B3 or 100 nM paclitaxel
Protocol: (A) HeLa cells were exposed overnight to carrier (DMSO), 20 μM compound B3 or 100 nM paclitaxel, and visualized by phase-contrast microscopy.
FIG. 2 (A) The H2B-GFP-expressing HeLa cells (grown under identical culture conditions as described in Example 1) were exposed overnight to carrier (0.1% (v/v) DMSO), 20 μM compound B3 or 100 nM paclitaxel in DMSO. The cells were then visualized using a phase-contrast microscope equipped for digital imaging.

[5] = test system: Vascular endothelium MS-1 cells; assay: Disruption of vascular endothelium cell adhesion (cell capillaries on Matrigel); format: cell-based; conditions: 300 nM, 60 minutes
Protocol: Following the addition of 300 nM compound C9 or an equivalent volume of DMSO carrier for 60 minutes, the extracellular matric plugs were imaged at 40× magnification by phase contrast microscopy.

[6] = test system: HeLa cells expressing H2B-GFP; assay: Induction of mitotic arrest (EC50), mitotic index by phospho-histone 3 staining; format: cell-based; conditions: Homo sapiens, concentration for 50% induction of mitotic arrest, overnight, values in nM, read-out: EC50 (mitosis) (HeLa)
Protocol: Parallel plates were treated overnight with the compounds to visualize the mitotic cells by staining with anti-phospho-histone 3 and Alexafluor 546 nm secondary antibodies after fixation with 4% paraformaldehyde. Following imaging of the nuclear GFP and phospho-histone 3 signals using an IN Cell Analyser (GE Healthcare), determination of the mitotic index by analysis of the images with Developer™ software (GE Healthcare) permitted estimation of the concentration that leads to 50% induction of the mitotic arrest (EC50). It can be seen that inhibition of cell proliferation and mitosis correlate well for the compounds tested.

[7] = test system: HeLa cells expressing H2B-GFP; assay: Inhibition of cell proliferation (GI50) by nuclear counts, IN Cell Analyser; format: cell-based, human; conditions: HeLa
Protocol: Table 3 HeLa cells expressing H2B-GFP were plated in 96-well plates and exposed to concentrations ranging from 100 μM to […] of the indicated compounds C1-C78. The number of cells was then determined every 24 hours by imaging of the plates using an IN Cell Analyser (GE Healthcare), followed by measurement of the number of intact cell nuclei using Developer™ software (GE Healthcare). Drug concentrations that cause 50% inhibition of cell proliferation (GI50) were determined from the nuclear counts using GraphPad Prism software or ED50v10 freeware.

[8] = test system: Vascular endothelium MS-1 cells; assay: Disruption of the microtubule cytoskeleton of vascular endothelium cells; format: cell-based; conditions: 100 nM, 120 minutes
Description: After staining with Hoescht, TRITC-phalloidin, anti-beta tubulin antibody and Alexafluor 488 nm secondary antibody, the cells were imaged at 400× magnification by epifluorescence microscopy.

[9] = test system: purified porcine brain tubulin; assay: In vitro microtubule assembly, light scattering at 350 nm; format: biochemical; conditions: 3 and 6 μM, 37° C.
Protocol: In vitro polymerisation of purified porcine brain tubulin at 37° C. in the presence of compound C9 (3 and 6 μM), 15 μM nocodazole, 2 μM vinblastine or an equal volume of carrier DMSO was measured over time as light scattering at 350 nm.

[10] = test system: HeLa cells expressing H2B-GFP; assay: Induction of apoptosis, Annexin V binding; format: cell-based, human; conditions: overnight; 20 μM compound A1 or 100 nM paclitaxel
Protocol: HeLa cells were exposed overnight to 20 μM compound A1 or 100 nM paclitaxel, stained with a fluorescent Annexin V marker of apoptosis and visualised by epifluorescence microscopy following fixation.
FIG. 3 The H2B-GFP-expressing HeLa cells were treated overnight with 20 μM compound A1 or 100 nM paclitaxel. The cells were then exposed to Annexin-V tagged with Alexafluor 546 nm and visualized using an epifluorescence microscope equipped for digital imaging following fixation with 4% para-formaldehyde.

EC50 [6] [nM] | GI50 ([7]; Homo sapiens, concentration causing 50% inhibition of cell proliferation, nuclear counts every 24 hours) [nM] | SMILES | Concentration potently blocking cell proliferation [1] [µM] | Accumulation of cells stained with phospho-histone 3 marker of mitosis [2] | Effect on mitotic spindle organisation and assembly [3] | Accumulation of cells with mitotic phenotype [4] | Disruption of vascular endothelium cell adhesion [5] | Anti-proliferative activity (effect of substitution, in words) ([7]; text comment on Table 3) | Disruption of the microtubule cytoskeleton [8] | Inhibition of in vitro microtubule assembly [9] | Induction of apoptotic cells (Annexin-V binding) [10]
– | – | COc1ccccc1/C=N/NC(=S)Nc1cccc(C)c1 [B3, 2-METHOXYBENZALDEHYDE N-(3-METHYLPHENYL)THIOSEMICARBAZONE] | > 1 | accumulation of cells that are stained with the phospho-histone 3 marker of mitosis | profoundly perturbs spindle function by blocking the assembly of spindle microtubule fibres | pronounced accumulation of round and translucent cells representing the mitotic phenotype | – | – | – | – | –
10 | 10 | COc1ccccc1/C=N/NC(=S)Nc1ccccc1C(F)(F)F [C9] | – | – | – | – | Disruption of vascular endothelium cell adhesion | greatly increase the anti-proliferative activity | Disruption of the microtubule cytoskeleton of vascular endothelium cells | Dose-dependent inhibition of in vitro microtubule assembly | –
– | – | CC(=O)O[C@H]1C(=O)[C@@]2(C)[C@H]([C@H](OC(=O)c3ccccc3)[C@]3(O)C[C@H](OC(=O)[C@H](O)[C@@H](NC(=O)c4ccccc4)c4ccccc4)C(C)=C1C3(C)C)[C@]1(OC(C)=O)CO[C@@H]1C[C@@H]2O [paclitaxel, reference compound] | – | accumulation of cells that are stained with the phospho-histone 3 marker of mitosis | – | pronounced accumulation of round and translucent cells representing the mitotic phenotype | – | – | – | – | induction of apoptotic cells
